# Reference: patent US4537879A, “A47934 Antibiotic and process for production thereof” (Eli Lilly and Company, priority 1984, dated 1985)
# Like-named read-outs stand apart in the source and are kept apart here.
# How the values were obtained:
# Haemophilus influenza = assay: MIC against a variety of bacteria, standard agar-dilution; assay type: cell-based
# Salmonella typhi = assay: as above; assay type: cell-based
# S. pyogenes C203 = assay: In vivo activity against experimental bacterial infection; settings: mice, two doses subcutaneously
# S. pneumoniae (Park I) = assay: as above; settings: mice, two doses subcutaneously
# S. aureus (3055) = assay: as above; settings: mice, two doses subcutaneously; S. aureus (3055) infection
# [1] = Acute toxicity, intraperitoneal; assay type: in vivo; settings: mice, intraperitoneally
# Description: Antibiotic A47934, when given intraperitoneally to mice, has an acute toxicity greater than 300 mg./kg.
# [2] = Precipitation from broth filtrate on acidification; assay type: physicochemical; settings: broth filtrate acidified
# Description: Antibiotic A47934 can also be removed from the broth filtrate by adjusting such filtrate to about pH 3 with acid, for complete precipitation, followed by filtration. A47934 starts to precipitate at about pH 6.5 and is complete at about pH 3. Inorganic acids such as hydrochloric, sulfuric, and phosphoric, and organic acids such as acetic acid and formic acid are suitable for acidification. The crude A47934 thus obtained can be further purified by chromatographic procedures.
# [3] = system: volatile fatty acids produced in the rumen; assay: Test 1: in vitro modification of the ratio of volatile fatty acids produced in the rumen
# Description: The effectiveness of antibiotic A47934 in modifying the ratio of volatile fatty acids produced in the rumen has been determined using the in vitro test described in Raun, U.S. Pat. No. 3,928,571 (Dec. 23, 1975), see the EXAMPLE therein. The data in Table 9, which follows, are reported as the ratio of VFA's produced in treated flasks to VFA's produced in untreated control flasks.
# [4] = Test 2: growth promotion in chickens; assay type: in vivo, 8-day old Penobscot broilers; settings: chicks, 20 g./T. of feed, 21 days
# Description: Chicks, 8-day old Penobscot broilers, were used in this test. A total of 560 chicks were used divided into groups of 7 birds each. […] The broiler starter ration has the following composition: Feed and water were available to all groups ad libitum for 21 days. Two time replicates were run.
# [5] = Test 3: growth promotion in weanling pigs; assay type: in vivo; settings: 28 days
# Description: Antibiotic A47934 was tested at levels of 10 and 50 ppm. in the diet of pigs initially weighing an average of about 23 pounds, compared with […]) administered in the diet at 110 ppm. The experiment was conducted in an environmentally controlled nursery facility with wire mesh floors in the pens. There were four replicates per treatment and four pigs per replicate for the 28-day experiment. There were six replicates of four pigs per replicate in the control group, which group received the unmedicated diet. The pigs were fed ad libitum on an 18 percent protein corn-soy ration having the following composition: At the end of the trial, the average weight of the individual pig had increased to 53 pounds.
# Peptococcus prevoti 1281 = settings: strain 1281; agar dilution
smiles,measurement,setting,value
N[C@H]1C(=O)N[C@@H]2Cc3ccc(c(Cl)c3)Oc3cc4cc(c3O)Oc3ccc(cc3Cl)[C@@H](O)[C@@H]3NC(=O)[C@H](NC(=O)[C@@H]4NC(=O)[C@@H](NC2=O)c2cc(O)cc(c2)Oc2cc1ccc2OS(=O)(=O)O)c1cc(Cl)c(O)c(c1)-c1c(O)cc(O)cc1[C@@H](C(=O)O)NC3=O [Antibiotic A47934],MIC,Haemophilus influenza; strain 76,4.0 µg/mL
same,MIC,Haemophilus influenza; strain C.L.,2.0 µg/mL
same,MIC,Salmonella typhi; strain 1335,> 128 µg/mL
same,MIC,Salmonella typhi; strain X514,> 128 µg/mL
same,ED50,S. pyogenes C203,3.38 mg./kg. × 2
same,ED50,S. pneumoniae (Park I),1.77 mg./kg. × 2
same,ED50,S. aureus (3055),< 0.3 mg./kg. × 2
same,acute toxicity,[1],greater than 300 mg./kg.
same,pH at which A47934 starts to precipitate,[2],~6.5 pH
same,pH at which precipitation is complete,[2],~3 pH
same,"Acetate, ratio of VFA produced in treated flasks to untreated control flasks",[3]; 1 mcg./ml.,0.99
same,"Butyrate, ratio of VFA produced in treated flasks to untreated control flasks",[3]; 1 mcg./ml.,1.01
same,"Propionate, ratio of VFA produced in treated flasks to untreated control flasks",[3]; 1 mcg./ml.,1.11
same,"Acetate, ratio of VFA produced in treated flasks to untreated control flasks",[3]; 2 mcg./ml.,1.09
same,"Butyrate, ratio of VFA produced in treated flasks to untreated control flasks",[3]; 2 mcg./ml.,1.03
same,"Propionate, ratio of VFA produced in treated flasks to untreated control flasks",[3]; 2 mcg./ml.,1.10
same,"Acetate, ratio of VFA produced in treated flasks to untreated control flasks",[3]; 4 mcg./ml.,0.81
same,"Butyrate, ratio of VFA produced in treated flasks to untreated control flasks",[3]; 4 mcg./ml.,1.03
same,"Propionate, ratio of VFA produced in treated flasks to untreated control flasks",[3]; 4 mcg./ml.,1.32
same,"Acetate, ratio of VFA produced in treated flasks to untreated control flasks",[3]; 10 mcg./ml.,0.95
same,"Butyrate, ratio of VFA produced in treated flasks to untreated control flasks",[3]; 10 mcg./ml.,1.00
same,"Propionate, ratio of VFA produced in treated flasks to untreated control flasks",[3]; 10 mcg./ml.,1.12
same,Feed Efficiency % Impr.,[4]; first time replicate,4.69%
same,Feed Efficiency F/G,[4]; first time replicate,1.707
same,Weight Gain,[4]; first time replicate,519 gm.
same,Weight Gain % Impr.,[4]; first time replicate,7.23%
same,Feed Efficiency F/G,[4]; second time replicate,1.746
same,Weight Gain,[4]; second time replicate,464 gm.
same,Weight Gain % Impr.,[4]; second time replicate,0%
same,ADF % Im-crease,[5]; 10 ppm in diet,-3.2%
same,ADF (average daily feed consumption),[5]; 10 ppm in diet,1.83 lbs.
same,ADG % Im-crease,[5]; 10 ppm in diet,3.1%
same,ADG (average daily gain),[5]; 10 ppm in diet,1.00 lbs.
same,F/G % Improvement,[5]; 10 ppm in diet,7.6%
same,F/G (ratio of feed consumption to gain),[5]; 10 ppm in diet,1.82
same,ADF % Im-crease,[5]; 50 ppm in diet,4.7%
same,ADF (average daily feed consumption),[5]; 50 ppm in diet,1.98 lbs.
same,ADG % Im-crease,[5]; 50 ppm in diet,10.3%
same,ADG (average daily gain),[5]; 50 ppm in diet,1.07 lbs.
same,F/G % Improvement,[5]; 50 ppm in diet,6.1%
same,F/G (ratio of feed consumption to gain),[5]; 50 ppm in diet,1.85
same,MIC,Peptococcus prevoti 1281,1.0 µg/mL
same,MIC,Escherichia coli; strain EC14,> 128.0 µg/mL
same,MIC,Escherichia coli; strain N10,> 128.0 µg/mL
same,MIC,Escherichia coli; strain TEM,> 128.0 µg/mL
same,MIC,Klebsiella pneumoniae; strain KAE,> 128.0 µg/mL
same,MIC,Klebsiella pneumoniae; strain X26,> 128.0 µg/mL
